Reference: ChEMBL document CHEMBL1201862, “PubChem BioAssay data set” (2004)
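Test compounds were applied to cells in 96-well plates for 48 hours at 5 doses. Abbreviation: GI50, concentration required for 50% inhibition of growth.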 The source made the active and inactive calls. Rule as the data show it: active = GI50 up to about 1.1 µM and inactive = higher.

Assays:
Assay in all cases: DTP human tumour cell line panel, 48 h
[1] = tested on: 786-0
[2] = tested on: A498
[3] = tested on: A549
[4] = tested on: ACHN
[5] = tested on: BT-549
[6] = tested on: CAKI-1
[7] = tested on: CCRF-CEM
[8] = tested on: COLO 205
[9] = tested on: DLD-1
[10] = tested on: DMS-114
[11] = tested on: DMS-273
[12] = tested on: DU-145
[13] = tested on: EKVX
[14] = tested on: HCC 2998
[15] = tested on: HCT-116
[16] = tested on: HCT-15
[17] = tested on: HL-60
[18] = tested on: HOP-18
[19] = tested on: HOP-62
[20] = tested on: HOP-92
[21] = tested on: HT-29
[22] = tested on: Hs-578T
[23] = tested on: IGROV-1
[24] = tested on: K562
[25] = tested on: KM-20L2
[26] = tested on: KM12
[27] = tested on: LOX IMVI
[28] = tested on: LXFL 529
[29] = tested on: M14
[30] = tested on: M19-MEL
[31] = tested on: MCF7
[32] = tested on: MDA-MB-231
[33] = tested on: MDA-MB-435
[34] = tested on: MDA-N
[35] = tested on: MOLT-4
[36] = tested on: Malme-3M
[37] = tested on: NCI-H226
[38] = tested on: NCI-H23
[39] = tested on: NCI-H460
[40] = tested on: NCI-H522
[41] = tested on: NCI/ADR-RES
[42] = tested on: OVCAR-3
[43] = tested on: OVCAR-4
[44] = tested on: OVCAR-5
[45] = tested on: OVCAR-8
[46] = tested on: PC-3
[47] = tested on: RPMI-8226
[48] = tested on: RXF 393
[49] = tested on: RXF 631
[50] = tested on: SF-268
[51] = tested on: SF-295
[52] = tested on: SF-539
[53] = tested on: SK-MEL-28
[54] = tested on: SK-MEL-2
[55] = tested on: SK-MEL-5
[56] = tested on: SK-OV-3
[57] = tested on: SN12C
[58] = tested on: SNB-19
[59] = tested on: SNB-75
[60] = tested on: SNB-78
[61] = tested on: SR
[62] = tested on: SW-620
[63] = tested on: T47D
[64] = tested on: TK-10
[65] = tested on: U-251
[66] = tested on: UACC-257
[67] = tested on: UACC-62
[68] = tested on: UO-31
[69] = tested on: XF498

O=S(=O)(O)c1cc(/N=N/c2cc(S(=O)(=O)O)c3cccnc3c2O)ccc1/C=C/c1ccc(/N=N/c2cc(S(=O)(=O)O)c3cccnc3c2O)cc1S(=O)(=O)O
GI50 [1]: > 100 µM (inactive)
GI50 [2]: > 100 µM (inactive)
GI50 [3]: > 100 µM (inactive)
GI50 [4]: > 100 µM (inactive)
GI50 [5]: > 100 µM (inactive)
GI50 [6]: > 100 µM (inactive)
GI50 [7]: 18.3 µM (inactive)
GI50 [8]: > 100 µM (inactive)
GI50 [9]: > 100 µM (inactive)
GI50 [10]: > 100 µM (inactive)
GI50 [11]: > 100 µM (inactive)
GI50 [12]: > 100 µM (inactive)
GI50 [13]: > 100 µM (inactive)
GI50 [14]: > 100 µM (inactive)
GI50 [15]: > 89.1 µM (inactive)
GI50 [16]: > 100 µM
GI50 [17]: 18.6 µM (inactive)
GI50 [18]: > 100 µM (inactive)
GI50 [19]: > 100 µM (inactive)
GI50 [20]: > 72.4 µM (inactive)
GI50 [21]: > 100 µM (inactive)
GI50 [22]: > 100 µM (inactive)
GI50 [23]: > 100 µM (inactive)
GI50 [24]: 34 µM (inactive)
GI50 [25]: > 66.5 µM (inactive)
GI50 [26]: > 100 µM (inactive)
GI50 [27]: > 94.8 µM (inactive)
GI50 [28]: > 100 µM (inactive)
GI50 [29]: 63.2 µM (inactive)
GI50 [30]: > 100 µM (inactive)
GI50 [31]: > 100 µM (inactive)
GI50 [32]: > 100 µM (inactive)
GI50 [33]: > 100 µM (inactive)
GI50 [34]: > 100 µM (inactive)
GI50 [35]: 20.4 µM (inactive)
GI50 [36]: > 100 µM (inactive)
GI50 [37]: > 100 µM (inactive)
GI50 [38]: > 100 µM (inactive)
GI50 [39]: > 100 µM (inactive)
GI50 [40]: > 100 µM (inactive)
GI50 [41]: > 100 µM (inactive)
GI50 [42]: > 100 µM (inactive)
GI50 [43]: > 100 µM (inactive)
GI50 [44]: > 100 µM (inactive)
GI50 [45]: > 100 µM (inactive)
GI50 [46]: > 100 µM (inactive)
GI50 [47]: > 97.7 µM (inactive)
GI50 [48]: > 31.6 µM (inactive)
GI50 [49]: > 100 µM (inactive)
GI50 [50]: > 100 µM (inactive)
GI50 [51]: > 100 µM (inactive)
GI50 [52]: > 100 µM (inactive)
GI50 [53]: > 100 µM (inactive)
GI50 [54]: > 100 µM (inactive)
GI50 [55]: > 100 µM (inactive)
GI50 [56]: > 100 µM (inactive)
GI50 [57]: > 100 µM (inactive)
GI50 [58]: > 100 µM (inactive)
GI50 [59]: > 100 µM (inactive)
GI50 [60]: > 100 µM (inactive)
GI50 [61]: 21.7 µM (inactive)
GI50 [62]: > 100 µM (inactive)
GI50 [63]: > 100 µM (inactive)
GI50 [64]: > 100 µM (inactive)
GI50 [65]: > 100 µM (inactive)
GI50 [66]: > 100 µM (inactive)
GI50 [67]: > 100 µM (inactive)
GI50 [68]: > 100 µM (inactive)
GI50 [69]: > 100 µM (inactive)
